Reference: patent US6492344B1, “Syndecan enhancer element and syndecan stimulation of cellular differentiation” (Biotie Therapies Corp., priority 1993, dated 2002)

What was measured:
[1] = tested on: syndecan-1 expression in 3T3 cells; assay: Quantitation of cell surface syndecan in 3T3 cells exposed to growth factors; type: cell-based, mouse; conditions: FGF-2 administered alone
Experimental: Growth factors enhance syndecan expression. NMuMG mouse mammary epithelial cells and 3T3 (NIH) mouse fibroblasts were routinely cultured in bicarbonate-buffered Dulbecco's modified Eagle's medium (DMEM; GIBCO) containing 10% FCS (GIBCO) and antibiotics, as previously described (Elenius et al., J. Biol. Chem. 265:17837-17843 (1990)). For experiments, cells were plated at equal density on culture dishes (Nunc) and grown to 60-70% confluency. Twenty-four hours before supplementing the medium with growth factor(s), the medium on the cells was replaced with fresh medium containing 2% CMS-FCS (Vogel et al., Proc. Natl. Acad. Sci. USA 75:2810-2814 (1978)). Equally treated cultures without growth factor addition served as negative controls. […] For quantitation and isolation of cell surface syndecan, media were discarded at time points indicated in the text and the cell layers were washed twice with ice cold phosphate buffered saline (PBS). […] After subsequent washes by resuspension and centrifugation the cell numbers were measured by counting the nuclei with a Coulter Counter (Coulter Electronics).
For quantitation of syndecan intercalated into the cell membrane, syndecan ectodomain was released by incubating washed cells in 20 μg/ml bovine pancreatic trypsin (Type III; Sigma) in PBS for 10 min on ice bath. […]

[2] = tested on: FGF-inducible Response Element (FiRE); assay: pFiRE CAT reporter in syndecan-1 transfected 3T3 cells (3T3 1.5); type: cell-based, mouse; conditions: 3T3 1.5 cells expressing high levels of syndecan-1, versus wild type 3T3
Description: The Enhancer is Not Functional in 3T3 Cells Expressing High Levels of Syndecan-1. Syndecan-1 transfected 3T3 cells (3T3 1.5) and wild type 3T3 cells were transiently transfected with the pFiRE construct, treated with FGF or a negative control, and analyzed for reporter gene (CAT) expression. The results are depicted in FIG. 16. The closed columns indicate relative CAT activity in control cells (without FGF treatment) while the labeled columns depict relative CAT activity in FGF-treated cells.

Substance: FGF-2: Basic fibroblast growth factor (FGF-2 or bFGF); recombinant human
- syndecan-1 expression [1]: shows enhancement of syndecan-1 expression
- activation of CAT expression from pFiRE [2]: significantly reduced
